From publication PMC11356821, “A New Class of Benzo[b]thiophene-chalcones as Cholinesterase Inhibitors: Synthesis, Biological Evaluation, Molecular Docking and ADME Studies” (Molecules, 2024)

Tests used:
[1] = target: electrophorus electricus AChE (Electrophorus electricus, UniProt O42275); experiment: AChE inhibition, Ellman's method; format: biochemical; conditions: for inhibition at 50 µM: read-out: AChE (I %); for AChE (I %): inhibition at 50 µM
Procedure: The potential effects of the synthesized compounds 4a–4i and 5a–5i on AChE and BChE were performed using electrophorus electricus AChE and equine serum BChE due to their low cost and high degree of similarity with their respective human enzymes. For the first screenings, they are excellent and widely used in vitro models.
AChE (EC EC 3.1.1.7) from electrophorus electricus and equine serum BChE (EC 3.1.1.8) were used for the inhibitory assays. ChE inhibitory activity was evaluated using Ellman’s method, as previously described, with slight modifications. The reaction mixture was prepared by dissolving acetylthiocholine iodide (1.5 mM), 5,5’-dithiobis-2-nitrobenzoate (DTNB) (1.5 mM) and the inhibitor (at the desired concentrations) or DMSO alone (control) in 0.1 M phosphate buffer (pH 8.0) to a final volume of 200 µL. The enzyme was added to the reaction mixture and the absorbance was monitored at 405 nm as soon as it was added. This test is based on the AChE enzyme hydrolyzing acetylthiocholine to produce acetate and thiocholine. Thiocholine reacts with DTNB to produce a yellow-colored anion. For the BChE assay, we followed the same procedures as above but used BChE as the enzyme and S-butyrylthiocholine chloride (BTCI) as the substrate. […] Galantamine is considered as a positive control under the same experimental conditions.

SH-SY5Y cells = experiment: Cell viability, MTT assay; format: cell-based; conditions: 24 h, at IC50 concentrations
Procedure: Therefore, their impact on the viability of SH-SY5Y cells (neuroblastoma cell line) has been studied. For cell viability experiments, the compounds were tested at different concentrations (0, 30, 50, 100 and 200 μM) for 24 h and analyzed using the MTT test.
Human neuroblastoma cell line SH-SY5Y was obtained from ICLC Cell bank (cat. # HTL95013). The cells were cultured in high-glucose DMEM supplemented with 10% fetal bovine serum, 100 units/mL of penicillin and 100 µg/mL of streptomycin (all from Gibco, Life sciences; Thermo Fisher Scientific, Waltham, MA, USA) and maintained at 37 °C in a humidified atmosphere of 5% CO2 and 95% air. Cell viability was detected by the colorimetric 3-(4,5 dimethylthiazol-2-yl)-2,5-diphenyltetrazolium bromide (MTT) assay, as previously described, with minor modifications. Briefly, 1.5 × 10^4 cells/well were seeded in 96-well plates and incubated for 24 h with different concentrations (30–200 μM) of compounds. After incubation, 100 μL of the MTT reagent (0.5 mg/mL in DMEM) was added, and the cells were incubated for 3 h at 37 °C. The resulting violet formazan precipitate was dissolved in DMSO and quantified by spectrophotometry at 570 nm using a microplate reader (VANTAstar_BMG LABTECH GmbH, Offenburg, Germany). Viability data were reported in the percentage of control for each compound.

equine serum BChE = target: T1, equine serum BChE (Equus caballus, UniProt P81908); experiment: biochemical; conditions: for inhibition at 50 µM: read-out: BChE (I %); for BChE (I %): inhibition at 50 µM
T1 construct: from tissue; host or cells: equine serum
T1 sequence (P81908 whole entry): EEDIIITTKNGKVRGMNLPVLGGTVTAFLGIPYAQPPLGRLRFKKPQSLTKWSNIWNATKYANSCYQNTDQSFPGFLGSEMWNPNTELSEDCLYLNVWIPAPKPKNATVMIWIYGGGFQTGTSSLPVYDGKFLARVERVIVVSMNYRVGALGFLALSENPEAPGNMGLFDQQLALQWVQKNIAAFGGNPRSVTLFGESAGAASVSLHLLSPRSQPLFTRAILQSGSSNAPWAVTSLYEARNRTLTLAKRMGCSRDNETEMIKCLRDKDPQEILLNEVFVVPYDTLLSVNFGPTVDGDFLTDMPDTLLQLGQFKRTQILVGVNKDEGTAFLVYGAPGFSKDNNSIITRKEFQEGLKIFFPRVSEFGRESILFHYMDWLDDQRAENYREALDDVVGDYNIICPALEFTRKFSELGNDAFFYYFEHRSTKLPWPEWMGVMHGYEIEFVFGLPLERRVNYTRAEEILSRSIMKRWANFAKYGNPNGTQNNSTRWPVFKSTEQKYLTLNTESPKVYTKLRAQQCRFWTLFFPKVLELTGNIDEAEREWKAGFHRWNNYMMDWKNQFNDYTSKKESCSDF
Procedure: AChE (EC EC 3.1.1.7) from electrophorus electricus and equine serum BChE (EC 3.1.1.8) were used for the inhibitory assays. ChE inhibitory activity was evaluated using Ellman’s method, as previously described, with slight modifications. The reaction mixture was prepared by dissolving acetylthiocholine iodide (1.5 mM), 5,5’-dithiobis-2-nitrobenzoate (DTNB) (1.5 mM) and the inhibitor (at the desired concentrations) or DMSO alone (control) in 0.1 M phosphate buffer (pH 8.0) to a final volume of 200 µL. The enzyme was added to the reaction mixture and the absorbance was monitored at 405 nm as soon as it was added. This test is based on the AChE enzyme hydrolyzing acetylthiocholine to produce acetate and thiocholine. Thiocholine reacts with DTNB to produce a yellow-colored anion. For the BChE assay, we followed the same procedures as above but used BChE as the enzyme and S-butyrylthiocholine chloride (BTCI) as the substrate.

Solubility in DMSO = format: physicochemical

electrophorus electricus AChE, sequence (O42275 24-633): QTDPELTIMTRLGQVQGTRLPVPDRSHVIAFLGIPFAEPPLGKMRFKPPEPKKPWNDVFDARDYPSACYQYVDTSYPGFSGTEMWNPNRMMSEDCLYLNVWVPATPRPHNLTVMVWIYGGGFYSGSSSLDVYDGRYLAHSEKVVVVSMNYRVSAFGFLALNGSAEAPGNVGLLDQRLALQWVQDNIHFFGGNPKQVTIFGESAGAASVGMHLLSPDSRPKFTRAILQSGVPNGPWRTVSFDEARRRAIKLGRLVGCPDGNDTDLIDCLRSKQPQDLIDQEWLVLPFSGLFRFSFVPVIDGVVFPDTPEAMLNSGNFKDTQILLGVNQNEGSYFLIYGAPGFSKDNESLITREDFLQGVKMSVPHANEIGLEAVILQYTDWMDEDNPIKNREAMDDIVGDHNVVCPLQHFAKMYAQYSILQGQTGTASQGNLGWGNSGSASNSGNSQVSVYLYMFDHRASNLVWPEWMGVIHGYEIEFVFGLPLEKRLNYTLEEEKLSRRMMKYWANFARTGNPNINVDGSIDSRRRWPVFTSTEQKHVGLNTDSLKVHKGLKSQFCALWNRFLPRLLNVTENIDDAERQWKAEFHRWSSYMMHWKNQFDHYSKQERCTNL

Row | SMILES | inhibition at 50 µM [1] [%] | inhibition at 50 µM (equine serum BChE) [%] | also measured
1 | O=C(c1ccc(Cl)cc1)c1c(-c2ccc(Cl)cc2)sc2ccccc12 [Compound 5f, 3-(4-Chlorobenzoyl)-2-(4-chlorophenyl)benzothiophene] | 39.9 | 23.1 | IC50 [1]: 62.1 ± 1.2 µM; cytotoxic effects on cell viability (SH-SY5Y cells): no cytotoxic effects
2 | Nc1ccc(-c2cc3ccccc3s2)cc1 [Compound 4h, 2-(4-aminophenyl)benzothiophene] |  | 10.2 | 
3 | FC(F)(F)c1ccc(-c2cc3ccccc3s2)cc1 [Compound 4e, 2-(4-Trifluoromethylphenyl)benzothiophene] |  |  | AChE (I %) [1]: Ins.; solubility in dimethyl sulfoxide (DMSO) (Solubility in DMSO): insoluble; BChE (I %) (equine serum BChE): Ins.
4 | O=C(c1ccc([N+](=O)[O-])cc1)c1c(-c2ccc([N+](=O)[O-])cc2)sc2ccccc12 [Compound 5b, 3-(4-Nitrobenzoyl)-2-(4-nitrophenyl)benzothiophene] | 11 | 16.8 | 
5 | Cc1ccc(C(=O)c2c(-c3ccc(C)cc3)sc3ccccc23)cc1 [Compound 5g, 3-(4-Methylbenzoyl)-2-(4-methylphenyl)benzothiophene] | 28.3 | 13.1 | 
6 | COc1ccc(-c2cc3ccccc3s2)cc1 [Compound 4c, 2-(4-Methoxyphenyl)benzothiophene] | 9.6 | 1.2 | 
7 | COc1ccc(C(=O)c2c(-c3ccc(OC)cc3)sc3ccccc23)cc1 [Compound 5c, 3-(4-Methoxybenzoyl)-2-(4-methoxyphenyl)benzothiophene] | 3.5 | 11.9 | 
8 | O=C(c1ccc(O)cc1)c1c(-c2ccc(O)cc2)sc2ccccc12 [Compound 5i, 3-(4-hydroxybenzoyl)-2-(4-hydroxyphenyl)benzothiophene] | 19.3 | 42.2 | cytotoxic effects on cell viability (SH-SY5Y cells): no cytotoxic effects; IC50 (equine serum BChE): 59.6 ± 11.6 µM
9 | Cc1ccc(-c2cc3ccccc3s2)cc1 [Compound 4g, 2-(4-Methylphenyl)benzothiophene] |  |  | AChE (I %) [1]: Ins.; solubility in dimethyl sulfoxide (DMSO) (Solubility in DMSO): insoluble; BChE (I %) (equine serum BChE): Ins.
10 | N#Cc1ccc(C(=O)c2c(-c3ccc(C#N)cc3)sc3ccccc23)cc1 [Compound 5d, 4-Cianophenyl-[2-(4-cianophenyl)-benzothiophen-3-yl]-methanone] | 4.5 | 14 | 
11 | c1ccc(-c2cc3ccccc3s2)cc1 [Compound 4a, 2-Phenylbenzothiophene] |  |  | AChE (I %) [1]: Ins.; solubility in dimethyl sulfoxide (DMSO) (Solubility in DMSO): insoluble; BChE (I %) (equine serum BChE): Ins.
12 | Clc1ccc(-c2cc3ccccc3s2)cc1 [Compound 4f, 2-(4-Chlorophenyl)benzothiophene] |  |  | AChE (I %) [1]: Ins.; solubility in dimethyl sulfoxide (DMSO) (Solubility in DMSO): insoluble; BChE (I %) (equine serum BChE): Ins.
13 | O=C(c1ccccc1)c1c(-c2ccccc2)sc2ccccc12 [Compound 5a, 3-Benzoyl-2-phenylbenzothiophene] | 20.8 | 35.7 | cytotoxic effects on cell viability (SH-SY5Y cells): no cytotoxic effects; IC50 (equine serum BChE): 83.4 ± 1.2 µM
14 | Oc1ccc(-c2cc3ccccc3s2)cc1 [Compound 4i, 2-(4-hydroxyphenyl)benzothiophene] | 8.19 | 13.6 | 
15 | O=C(c1ccc(C(F)(F)F)cc1)c1c(-c2ccc(C(F)(F)F)cc2)sc2ccccc12 [Compound 5e, 3-(4-Trifluoromethylbenzoyl)-2-(4-trifluoromethylphenil)benzothiophene] | 10 | 3.1 | 
16 | O=[N+]([O-])c1ccc(-c2cc3ccccc3s2)cc1 [Compound 4b, 2-(4-Nitrophenyl)benzothiophene] | 8.2 | 2.29 | 
17 | Nc1ccc(C(=O)c2c(-c3ccc(N)cc3)sc3ccccc23)cc1 [Compound 5h, 3-(4-aminobenzoyl)-2-(4-aminophenyl)benzothiophene] |  | 58.3 | cytotoxic effects on cell viability (SH-SY5Y cells): no cytotoxic effects; IC50 (equine serum BChE): 24.3 ± 0.5 µM
18 | N#Cc1ccc(-c2cc3ccccc3s2)cc1 [Compound 4d, 4-(Benzothiophene-2-yl)benzonitrile] |  |  | AChE (I %) [1]: Ins.; solubility in dimethyl sulfoxide (DMSO) (Solubility in DMSO): insoluble; BChE (I %) (equine serum BChE): Ins.
